Ten molecules from patent US20240150339A1, “Compounds and Their Use as PDE4 Activators” (Mironid Limited, priority 2021, published 2024) can be followed below.

The target in one experiment is T1, PDE4D5 (Homo sapiens, UniProt Q08499).
T1 construct: Using Full-Length Human PDE4 Isoforms: Long Forms PDE4D5, PDE4C3, PDE4B1 and Short Form PDE4B2; made in house; cytosol fraction of the cell lysate, not purified
Nature of the experiment: PDE assay, activation of full-length human PDE4D5 long form ([3H]cAMP radio-assay). Particulars: 30 μM test compound; mean % increase in counts over basal activity. The class given is biochemical. The source says: (§1) Experiment 1: Measurement of Modulation of Enzyme Activity by PDE4 Long Form Activators of the Present Invention Using Full-Length Human PDE4 Isoforms: Long Forms PDE4D5, PDE4C3, PDE4B1 and Short Form PDE4B2
(§2) (Marchmont, R. J. and Houslay, M. D. Biochem. J. 187: 381-92, 1980)
(§3) For transient transfection of exogenous PDE4 long isoforms, HEK 293 cells were transfected with pcDNA3.1 or pDEST™ PDE4 expression vectors using Lipofectamine LTX/Plus reagent (Invitrogen) as outlined by the manufacturer.
(§4) Where stable cell lines were generated the clonal isolates were expanded to obtain cell lines that stably expressed the full-length human PDE4 long isoforms and the full length human PDE4B2 short isoform. These were called the HEK-PDE4D5, HEK-PDE4B1 and HEK-PDE4B2 cell lines, respectively.
(§5) HEK-PDE4D5 cells were seeded out in 100 mm plates and incubated at 37° C. in an atmosphere of 5% CO2, 95% air. Cell lysates were prepared using KHEM buffer [50 mM KCl, 10 mM EGTA, 50 mM HEPES (pH 7.2), 1.92 mM MgCl2].
(§6) To prepare the cell lysates, the 100 mm plates containing the cells were placed on ice and washed with ice-cold PBS (phosphate buffered saline, pH 7.4). KHEM buffer (500 μl) was added to the cells. Cells were then scraped off the plate and triturated using a needle (BD Microlance™ 0.8, 40 mm). The lysed cells were then centrifuged at 2000 rpm for 10 minutes to remove cell debris and the supernatant (cell lysate containing recombinant PDE4D5) was transferred to a fresh tube and kept on ice.
(§7) The cell lysate containing recombinant PDE4D5 was transferred into a centrifuge tube and placed into an ultracentrifuge (BECKMAN COULTER) and spun at high speed (100,000 g) for 30 minutes at 4° C. The cytosol fraction was then collected and its protein amount determined using a BCA protein assay.
(§8) PDE assays were performed in thin walled V-bottomed 96-well plates. The assays were performed at a final concentration of 10 mM Tris/5 mM MgCl2 μlus PDE4D5 cell lysate cytosol fraction, containing over-expressed PDE4D5, with and without test compound. The lysate/compound mix were incubated together for 15 min at room temperature on an orbital shaker prior to addition of [^3H] cAMP (final concentration 1 μM [^3H] cAMP; Perkin Elmer) to a final volume of 50 μl per reaction. The reactions were then incubated for 10 minutes at 30° C., terminated by heating for 2 min at 95° C. and allowed to cool. Snake venom (12.5 μl of 1 mg/ml; Crotalus atrox, Sigma) was then added and the plates were agitated and incubated for a further 15 minutes at 30° C. Dowex ion exchange resin (Sigma, chloride form, 200-400 mesh; 200 μl; prepared as a 1:1 Dowex: water stock, thoroughly re-suspended and diluted 2:1 with ethanol) was then added to each well and the plates incubated for 15 min at room temperature on an orbital shaker ensuring sufficient agitation for resin suspension (550 RPM). The reaction mixture was then transferred to a 96 well filter plate (Millipore; […] pore size) and filtered into a receiving 96-well plate to remove the dowex suspension. 30 μL of the filtered solution was then transferred to the wells of an Opti-plate (Perkin Elmer) 96 well assay plate and 120 μl of Microscint 40 scintillation fluid was added. The plate was then placed on an orbital shaker for 10 min at high speed (900 RPM) to mix the sample with scintillation fluid prior to quantitation using a plate based scintillation counter (Top-Count).
(§9) The % increase in counts in the presence of test compound at a particular concentration indicates the % increase in enzyme activity at that concentration.

Another experiment has as its target T2, PDE4B2 (Homo sapiens, UniProt Q07343).
T2 construct: the full length human PDE4B2 short isoform; made in house; cytosol fraction of the lysate by analogy to PDE4D5
Nature of the experiment: PDE assay, activity of full-length human PDE4B2 short form ([3H]cAMP radio-assay). The class given is biochemical. The note with it: 30 μM test compound; mean % increase in counts over basal activity.
Text: as §1, §2, §3, §4, §5, §6, §7, §8, §9

A further experiment deals with m-IMCD3 cells. Briefly: Inhibition of PGE2-stimulated in vitro cyst formation in 3D culture of m-IMCD3 cells. The class given is cell-based, mouse. Particulars: Mus musculus, mIMCD3, 144 h; 10 μM test compound; mean cyst area (%) compared to 100% for (DMSO + PGE2) and 0% for DMSO control; 100 nM PGE2; 6 days; read-out: % Cyst area after incubation with 10 μM test compound. In outline: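 Mouse m-IMCD3 cells grown in 3D collagen I/Matrigel gels. From 18-24 h after plating, compound (0.1% DMSO) plus 100 nM PGE2 were added and replenished at 2-3 days. After 6 days, imaging gave mean cyst area, scaled to 100% for DMSO+PGE2 and 0% for DMSO alone.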

The next experiment concerns the target T3, PDE4C3 (Homo sapiens, UniProt Q08493).
T3 construct: Using Full-Length Human PDE4 Isoforms: Long Forms PDE4D5, PDE4C3, PDE4B1 and Short Form PDE4B2; made in house; host or cells: HEK 293 transfected with pcDNA3.1 or pDEST PDE4 expression vector; cytosol fraction of the lysate by analogy to PDE4D5
Nature of the experiment: PDE assay, activation of full-length human PDE4C3 long form ([3H]cAMP radio-assay). Particulars: 30 μM test compound; mean % increase in counts over basal activity. The class given is biochemical.
Text: as §1, §2
For transient transfection of exogenous PDE4 long isoforms, HEK 293 cells were transfected with pcDNA3.1 or pDEST™ PDE4 expression vectors using Lipofectamine LTX/Plus reagent (Invitrogen) as outlined by the manufacturer. […]
as §5, §6, §7, §8, §9

Molecules are shown by their SMILES.

T3 sequence (Q08493 1-680 isoform Q08493-3): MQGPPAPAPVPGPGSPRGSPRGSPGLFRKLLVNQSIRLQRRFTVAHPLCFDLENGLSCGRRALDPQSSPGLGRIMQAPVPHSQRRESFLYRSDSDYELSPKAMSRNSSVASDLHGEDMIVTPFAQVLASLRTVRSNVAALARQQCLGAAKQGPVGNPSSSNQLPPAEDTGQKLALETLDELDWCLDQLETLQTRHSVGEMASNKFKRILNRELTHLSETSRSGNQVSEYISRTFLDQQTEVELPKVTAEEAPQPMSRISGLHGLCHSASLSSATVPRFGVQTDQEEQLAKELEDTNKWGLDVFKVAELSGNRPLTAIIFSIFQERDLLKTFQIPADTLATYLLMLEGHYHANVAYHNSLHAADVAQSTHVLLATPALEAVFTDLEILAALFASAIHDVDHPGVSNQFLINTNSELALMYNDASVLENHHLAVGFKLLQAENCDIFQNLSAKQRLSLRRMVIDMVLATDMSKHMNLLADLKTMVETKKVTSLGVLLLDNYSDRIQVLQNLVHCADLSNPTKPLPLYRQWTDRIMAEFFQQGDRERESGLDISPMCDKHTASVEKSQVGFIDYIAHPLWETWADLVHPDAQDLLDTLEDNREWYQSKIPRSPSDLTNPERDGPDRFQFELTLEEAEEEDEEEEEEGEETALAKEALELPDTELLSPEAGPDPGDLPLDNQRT
T2 sequence (Q07343 1-564 isoform Q07343-2): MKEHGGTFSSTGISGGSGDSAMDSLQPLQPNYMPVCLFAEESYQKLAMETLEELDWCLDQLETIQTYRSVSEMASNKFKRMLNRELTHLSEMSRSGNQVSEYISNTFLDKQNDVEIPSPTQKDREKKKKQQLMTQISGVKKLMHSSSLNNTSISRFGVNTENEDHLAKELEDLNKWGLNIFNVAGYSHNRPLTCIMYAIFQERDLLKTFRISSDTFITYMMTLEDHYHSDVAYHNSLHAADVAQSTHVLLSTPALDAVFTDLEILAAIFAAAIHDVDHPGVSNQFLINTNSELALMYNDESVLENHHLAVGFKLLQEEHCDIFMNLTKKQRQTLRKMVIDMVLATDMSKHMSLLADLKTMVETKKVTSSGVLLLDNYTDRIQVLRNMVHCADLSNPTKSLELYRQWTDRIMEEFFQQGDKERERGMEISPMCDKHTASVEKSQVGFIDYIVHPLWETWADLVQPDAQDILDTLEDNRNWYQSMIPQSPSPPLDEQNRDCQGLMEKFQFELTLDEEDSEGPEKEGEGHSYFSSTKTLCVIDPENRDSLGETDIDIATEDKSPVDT
T1 sequence (Q08499 1-745 isoform Q08499-6): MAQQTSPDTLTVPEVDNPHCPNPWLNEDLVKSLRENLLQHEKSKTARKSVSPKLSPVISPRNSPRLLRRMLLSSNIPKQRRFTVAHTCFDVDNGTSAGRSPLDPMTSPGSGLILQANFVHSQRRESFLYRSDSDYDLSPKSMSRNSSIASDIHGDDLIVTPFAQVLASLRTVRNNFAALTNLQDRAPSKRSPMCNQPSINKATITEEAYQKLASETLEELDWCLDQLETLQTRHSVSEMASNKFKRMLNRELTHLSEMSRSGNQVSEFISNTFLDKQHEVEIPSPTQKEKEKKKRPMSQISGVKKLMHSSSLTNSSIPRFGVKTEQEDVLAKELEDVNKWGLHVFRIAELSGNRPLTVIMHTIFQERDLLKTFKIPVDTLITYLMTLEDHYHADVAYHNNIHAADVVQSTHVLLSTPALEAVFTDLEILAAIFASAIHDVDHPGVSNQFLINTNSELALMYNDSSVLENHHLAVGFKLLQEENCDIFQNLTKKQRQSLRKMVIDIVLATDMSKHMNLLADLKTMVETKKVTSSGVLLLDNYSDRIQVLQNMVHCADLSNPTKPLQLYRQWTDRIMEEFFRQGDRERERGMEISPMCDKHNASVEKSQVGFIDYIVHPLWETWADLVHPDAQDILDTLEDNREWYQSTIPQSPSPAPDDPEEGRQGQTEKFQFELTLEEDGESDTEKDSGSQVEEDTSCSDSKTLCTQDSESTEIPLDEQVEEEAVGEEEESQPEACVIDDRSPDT

At PDE4D5, `CCN1CCC(c2nc3c(C)cc(C(=O)N[C@H]4CCOc5ccccc54)cc3s2)CC1` [Example 187, (S)-N-(chroman-4-yl)-2-(1-ethylpiperidin-4-yl)-4-methylbenzo[d]thiazole-6-carboxamide] yielded an activation at 30 µM of 31%. Further, at PDE4B2, the “% increase in PDE4B2 activity at 30 μM*” value was 9%.

The molecule `CCN1CC2CCC(C1)N2c1nc2ccc(S(=O)(=O)NC3CCC(F)(F)CC3)cc2s1` [Example 290, N-(4,4-difluorocyclohexyl)-2-(3-ethyl-3,8-diazabicyclo[3.2.1]octan-8-yl)benzo[d]thiazole-6-sulfonamide] had an activation at 30 µM at PDE4D5 of 47%. Moreover, the “% increase in PDE4B2 activity at 30 μM*” value on PDE4B2 is reported as 11%. For the same molecule, the activity at 10 µM in the experiment on m-IMCD3 cells was found to be 16%.

For the molecule `Cc1ccncc1-c1nc2ccc(C(=O)N[C@H]3CCOc4ccccc43)cc2s1` [Example 51, (S)-N-(chroman-4-yl)-2-(4-methylpyridin-3-yl)benzo[d]thiazole-6-carboxamide], the activation at 30 µM at PDE4D5 is 87%; at PDE4C3 it was 112%. In the experiment on m-IMCD3 cells, the activity at 10 µM is -15%.

For the molecule `Cc1cncc(-c2nc3ccc(C(=O)NCc4ccc(F)cc4)cc3s2)c1` [Example 32, N-(4-fluorobenzyl)-2-(5-methylpyridin-3-yl)benzo[d]thiazole-6-carboxamide], the activation at 30 µM on PDE4C3 was 99%. The activity at 10 µM in the experiment on m-IMCD3 cells was 18%.

With `Cc1ncccc1-c1nc2ccc(C(=O)N[C@H]3CCCc4ccccc43)cc2s1` [Example 6, (S)-2-(2-methylpyridin-3-yl)-N-(1,2,3,4-tetrahydronaphthalen-1-yl)benzo[d]thiazole-6-carboxamide], at PDE4C3, the activation at 30 µM stood at 38%. Also, the activity at 10 µM with m-IMCD3 cells turned out to be 7%.

Regarding `CCN1CCN(c2nc3cc(C)c(C(=O)N[C@H]4CCOc5ccccc54)cc3s2)CC1` [Example 216, (S)-N-(chroman-4-yl)-2-(4-ethylpiperazin-1-yl)-5-methylbenzo[d]thiazole-6-carboxamide], the activation at 30 µM on PDE4D5 stood at 88%. On PDE4B2, the “% increase in PDE4B2 activity at 30 μM*” value was −2%. Besides, the activity at 10 µM in the experiment on m-IMCD3 cells is -5%.

Turning to `Cc1ccncc1-c1nc2ccc(C(=O)N[C@H]3CCCc4ccccc43)cc2s1` [Example 50, (S)-2-(4-methylpyridin-3-yl)-N-(1,2,3,4-tetrahydronaphthalen-1-yl)benzo[d]thiazole-6-carboxamide], the activation at 30 µM was determined as 51% on PDE4D5 and 58% at PDE4C3. Further, the activity at 10 µM with m-IMCD3 cells was 11%.

Consider `CCN1CCN(c2nc3c(C)cc(C(=O)N[C@H]4CCOc5ccccc54)cc3s2)CC1` [Example 212, (S)-N-(chroman-4-yl)-2-(4-ethylpiperazin-1-yl)-4-methylbenzo[d]thiazole-6-carboxamide], for which the activation at 30 µM at PDE4D5 was 30%. For the same molecule, on PDE4B2, the “% increase in PDE4B2 activity at 30 μM*” value is given as −3%.

As for `CCN1CCN(c2nc3ccc(C(=O)N[C@H]4CCOc5ccccc54)c(C)c3s2)CC1` [Example 220, (S)-N-(chroman-4-yl)-2-(4-ethylpiperazin-1-yl)-7-methylbenzo[d]thiazole-6-carboxamide], the activation at 30 µM at PDE4D5 amounted to 36%. The “% increase in PDE4B2 activity at 30 μM*” value at PDE4B2 amounted to 0%.

Turning to `O=C(N[C@H]1CCOc2ccccc21)c1ccc2nc(-c3cccnc3)sc2c1` [Example 9, (S)-N-(chroman-4-yl)-2-(pyridin-3-yl)benzo[d]thiazole-6-carboxamide], the activation at 30 µM on PDE4D5 turned out to be 81%. The “% increase in PDE4B2 activity at 30 μM*” value on PDE4B2 was 3%.
